According to patent US20210388364A1, “METHOD FOR DETECTING A SPECIFIC SPLICE EVENT OF A GENE OF INTEREST” (Helmholtz Zentrum Müncher - Deutsches Forschungszentrum Für …, priority 2019, published 2021):

What was measured:
[1] = tested on: HEK-293T cells; assay: Blasticidin-S survival selection of HEK-293T cells with or without bsd-intein in FOXP1 exon 18b; assay type: cell-based, human
Source text: To knock-out MBNL1/2 (mucleblind-like protein 1/2, SEQ ID NO: 62 and SEQ ID NO: 63) in HEK293T cell cells which carries a blasticidin resistance gene flanked by inteins within the FOXP1 exon 18b, two plasmids expressing a mammalian codon-optimized Cas9 from S. pyogenes (SpCas9, SpyCas9) with a tandem C-terminal SV40 nuclear localization signal (SV40 NLS) via a CBh hybrid RNA-polymerase II promoter and human U6 driving a single-guide-RNA (sgRNA, gRNA) for SpyCas9 (SEQ ID NO: 23) with a cloned protospacer targeting MBNL1 and MBNL2 were co-transfected into the cells. 72 h later, cells were replated in a proper format and medium were supplemented with indicated blasticidin concentration. Control condition were transfected with the same conditions but the sgRNA is targeting the control locus AAVS1 (PPP1R12C) (safe-harbor locus AAVSI intronic region, SEQ ID NO. 64). Genomic DNA was isolated from blasticidin-treated surviving colonies with Wizard® Genomic DNA Purification Kit (Promega).
Next, the inventors checked whether the KO of reported suppressors of FOXP1 exon 18b by knocking out their constitutive exon of MBNL1 and MBNL2 are able to confer survival of the cells upon treatment with bs compared to a control condition where gRNA targeting the safe-harbor AAVS1 locus (PPP1R12C) was transfected instead. […]

[2] = tested on: Oaz1; assay: FACS analysis of Oaz1-EXSISERS-transfected cells treated with polyamines (ribosomal frameshift readout); assay type: cell-based; settings: increasing polyamine concentrations, verified by immunoblot
Source text: FIG. 7: Non-invasive protein-level quantification of co-translation regulation. […] Rising polyamine levels lead to a +1 frameshift and skipping of the in-frame stop codon leading to the full-length Oaz1 antizyme. The usage of the in-frame stop codon will otherwise lead to truncated non-functional Oaz1. Full-length Oaz1 binds and inactivates the enzyme Odc, the rate-limiting enzyme in the polyamine biosynthesis pathway, resulting in a product-mediated closed-loop homeostatic regulation of polyamine levels. […] Transfected (blue cells) cells were analyzed by counting the fraction of blue cells passing the green gate which is set to contain the 25% greenest cells in the untreated condition (0 mM).
Ribosomal frameshift-mediated regulations cannot be monitored by RT-qPCR or other RNA-based quantification methods. Exemplary, Oaz1, […] (FIG. 7a) was chosen, since it was known to be regulated by polyamine. gp41-1 split-inteins-flanked mNeonGreen and NrdJ-1-split-inteins-flanked mTagBFP2 were inserted into the full-length Oaz1 gene and transfected cells were treated with increasing polyamine concentrations to determine whether frameshift regulation could be read out via fluorescence quantification (FIG. 7b).

## CN(CC[C@H](N)CC(=O)N[C@H]1C=C[C@H](n2ccc(N)nc2=O)O[C@@H]1C(=O)O)C(=N)N [bs, blasticidin-S]
[1]; bs 5 to 12.5 μg/mL, reporter cells, control gRNA targeting AAVS1
  cell survival: no survival
[1]; unmodified HEK-293T cells, targeting MBNL1 and MBNL2 or AAVS1
  cell survival: no cells survived

## NCCCCNCCCN [spermidine]
[2]
  stop codon readthrough: stimulated

## NCCCNCCCCNCCCN [spermine]
[2]
  stop codon readthrough: stimulated
